From patent US20230085362A1, “PYRIMIDINE COMPOUNDS AND USE THEREOF” (National Health Research Institutes, priority 2021, published 2023)

Columns and labels:
Primary DRG cells [1] = assay: Neurite outgrowth assay (group B), oxaliplatin-induced neurotoxicity; format: cell-based, C57BL/6 J mice; details: for Neurite outgrowth (%): DRG cells, 1 µM compound 24 h then 100 µM oxaliplatin 48 h, % of untreated control; for Neurite outgrowth (%) A-B: difference between compound 1 µM + oxaliplatin 100 µM and oxaliplatin 100 µM alone; for neuroprotection against oxaliplatin-induced neurotoxicity: 1 µM compound, 100 µM oxaliplatin
Method: (§1) Cell culture. For primary culture, dorsal root ganglia (“DRG”) were removed from 7-weeks-old C57BL/6 J mice and digested with 0.1% collagenase (Sigma-Aldrich, St. Louis, MO) for 1 hour, followed by 0.25% trypsin treatment for 25 minutes. The dissociated neuron cultures were plated at a density of 2.5×10^4 cells per well in a 96 well optics plates (CLS3614; Sigma-Aldrich) precoated with 1 mg/mL poly-D-lysine (A-003-M; Sigma-Aldrich) for 3 hours. Primary DRG cells were grown in DMEM-F12 (11320033; Gibco®, ThermoFisher Scientific, Waltham, MA) supplemented with 10% fetal bovine serum (FBS, 26140079; Gibco®, ThermoFisher). These cells were maintained at 37° C. in an environment containing 5% CO2.
(§2) Neurite outgrowth assay (group A). Primary DRG cells were incubated with one of the Example 2 compounds at 1 µM for 24 hours, and then treated with 0.05 µM paclitaxel for another 24 hours. After the paclitaxel treatment, the primary DRG cells were washed by PBS and then fixed with 4% paraformaldehyde (PFA, P6148; Sigma-Aldrich) for 15 minutes. The DRG cells thus fixed were permeabilized by 0.05% Triton X-100 in PBS for 20 minutes and blocked with 3% bovine serum albumin (BSA; Sigma-Aldrich, USA) at room temperature for 1 hour. Subsequently, DRG cells were stained with rabbit anti-β III tubulin (1:600; Cell Signaling, USA) and mouse anti-NeuN monoclonal antibody (1:400; Millipore, USA) overnight at 4° C. The samples were then washed by PBS and reacted with secondary antibodies (Alexa-488 and Alexa-594 1:600; Invitrogen, CA) at room temperature for 1 hour. For image acquisition and analysis of DRG neurite outgrowth, images of stained cells were automatically acquired using 10X objective by Image Xpress Micro wide field fluorescent microscope (Molecular Devices, USA). A control was obtained following the same procedure except that the DRG cells were not treated with a compound or paclitaxel. Neurite outgrowth was measured as a percentage of outgrowth as compared to the control.
Neurite outgrowth assay (group B). Primary DRG cells were incubated with compounds 17, 47, 97, 98, 101, 104 at 1 µM for 24 hours, and then treated with 100 µM oxaliplatin for another 48 hours. The treatment was obtained following the same procedure as group A except that the DRG cells were treated with a oxaliplatin. Neurite outgrowth was measured as a percentage of outgrowth as compared to the control.

Primary DRG cells [2] = assay: Neurite outgrowth assay (group A), paclitaxel-induced neurotoxicity; format: cell-based, C57BL/6 J mice; details: for neuroprotection against paclitaxel-induced neurotoxicity: 1 µM compound, 0.05 µM paclitaxel; for activity at 1 µM: Mus musculus, DRG cells, 1 µM compound 24 h then 0.05 µM paclitaxel 24 h, % of untreated control, read-out: Neurite outgrowth (%); for Neurite outgrowth (%) A-B (extent of protection): difference between compound 1 µM + paclitaxel 0.05 µM and paclitaxel 0.05 µM alone
Method: Compounds of this invention were evaluated using the neurite outgrowth assay as described in Chen et al., Scientific Reports, 7, 45366, DOI: 10.1038/srep45366 (2017).
as §1, §2
The difference between A and B indicates an extent of protection provided by the compound.

[3] = tested on: paclitaxel-induced neuropathy; details: 5 mg/kg i.p. one hour before paclitaxel 4.5 mg/kg i.p., days 0, 2, 4, 6
Method: Compound 47 was used in an in vivo mouse behavioral study for treating paclitaxel-induced neuropathy following a procedure described in Chen et al., Scientific Reports, 7, 45366, DOI: 10.1038/srep45366 (2017).
After housing adaptions, 7-weeks-old C57BL/6J female mice (weight range: 18-20 g) were treated as follows. Paclitaxel (4.5 mg/kg, Bristol-Myers Squibb, New York, New York), vehicle (saline), or Compound 47 (5, 10 or 20 mg/kg) was injected intraperitoneally on four alternative days (days 0, 2, 4, and 6). Two behavior tests were performed: (1) mechanical hyperalgesia was evaluated using a von Frey filament (Part #2390, IITC Inc., CA) and (2) thermal sensitivity was studied using a tail immersion assay (water temperature: 48-49° C.). See Chen et al., Mol. Cancer. Ther. 14, 2206-14 (2015). The baseline measurement of each behavior test was established prior to treatments. Five sessions were measured weekly.
The neuroprotective effects of Compound 47 in a mouse model was measured following a protocol with predetermined drug administration and behavioral tests. The basal levels of each behavioral assay were obtained prior to the treatment. […]
A von Frey filament test was performed to detect allodynia. […] Thermal sensation was assessed using a tail immersion test by checking tail withdrawal latency. […]

In the case of `CCn1nnc(CNc2nc(N3CCOCC3)cc(N3CCOCC3)n2)n1` [Compound 98], the “Neurite outgrowth (%)” value (Primary DRG cells [1]) is reported as 26%, the “Neurite outgrowth (%) A-B” value (Primary DRG cells [1]) is reported as -3% and the “neuroprotection against paclitaxel-induced neurotoxicity” value (Primary DRG cells [2]) is reported as “neuroprotection was provided”. For the same compound, the activity at 1 µM (Primary DRG cells [2]) was 45% and the “Neurite outgrowth (%) A-B (extent of protection)” value (Primary DRG cells [2]) was 5%.

In the case of `CCn1nnc(CNc2nc(NC3CCN(CCC(=O)O)CC3)cc(N3CCOCC3)n2)n1` [Compound 101], the “neuroprotection against oxaliplatin-induced neurotoxicity” value (Primary DRG cells [1]) is reported as “neuroprotection was provided”, the “Neurite outgrowth (%)” value (Primary DRG cells [1]) is reported as 31% and the “Neurite outgrowth (%) A-B” value (Primary DRG cells [1]) is reported as 2%. For the same compound, the “neuroprotection against paclitaxel-induced neurotoxicity” value (Primary DRG cells [2]) was “neuroprotection was provided”, the activity at 1 µM (Primary DRG cells [2]) was 53% and the “Neurite outgrowth (%) A-B (extent of protection)” value (Primary DRG cells [2]) was 6%.

`O=P(O)(O)CCN1CCC(Nc2cc(N3CCOCC3)nc(NCc3cn(CCCO)nn3)n2)CC1` [Compound 47] was tested, and the “improvement of neurite outgrowth” value (Primary DRG cells [1]; 1 µM compound vs 100 µM oxaliplatin treated cells) was “more than 7%”, the “neuroprotection against oxaliplatin-induced neurotoxicity” value (Primary DRG cells [1]) was “neuroprotection was provided” and the “Neurite outgrowth (%)” value (Primary DRG cells [1]) was 47%. For the same compound, the “Neurite outgrowth (%) A-B” value (Primary DRG cells [1]) was 7%, the “improvement of neurite outgrowth” value (Primary DRG cells [2]; 1 µM compound vs 0.05 µM paclitaxel treated cells) was “more than 18%” and the “neuroprotection against paclitaxel-induced neurotoxicity” value (Primary DRG cells [2]) was “neuroprotection was provided”. For the same compound, the activity at 1 µM (Primary DRG cells [2]) was 65%, the “Neurite outgrowth (%) A-B (extent of protection)” value (Primary DRG cells [2]) was 18% and the “pain threshold (von Frey)” value [3] was “provided protection”.

`CCn1nnnc1CNc1nc(N2CCOCC2)cc(N2CCOCC2)n1` [Compound 97] was tested, and the “neuroprotection against oxaliplatin-induced neurotoxicity” value (Primary DRG cells [1]) was “neuroprotection was provided”, the “Neurite outgrowth (%)” value (Primary DRG cells [1]) was 31% and the “Neurite outgrowth (%) A-B” value (Primary DRG cells [1]) was 2%. For the same compound, the “neuroprotection against paclitaxel-induced neurotoxicity” value (Primary DRG cells [2]) was “neuroprotection was provided”, the activity at 1 µM (Primary DRG cells [2]) was 45% and the “Neurite outgrowth (%) A-B (extent of protection)” value (Primary DRG cells [2]) was 5%.

In the case of `CC(C)NCCCn1cc(CNc2nc(NC3CCN(Cc4ccccc4)CC3)cc(N3CCOCC3)n2)nn1` [Compound 17], the “Neurite outgrowth (%)” value (Primary DRG cells [1]) is reported as 26%, the “Neurite outgrowth (%) A-B” value (Primary DRG cells [1]) is reported as -3% and the “neuroprotection against paclitaxel-induced neurotoxicity” value (Primary DRG cells [2]) is reported as “neuroprotection was provided”. The activity at 1 µM (Primary DRG cells [2]) was 50% and the “Neurite outgrowth (%) A-B (extent of protection)” value (Primary DRG cells [2]) was 3%.

For `OCCCc1cc(CNc2nc(NC3CCNCC3)cc(N3CCOCC3)n2)no1` [Compound 104], the “neuroprotection against oxaliplatin-induced neurotoxicity” value (Primary DRG cells [1]) was “neuroprotection was provided”, the “Neurite outgrowth (%)” value (Primary DRG cells [1]) was 34% and the “Neurite outgrowth (%) A-B” value (Primary DRG cells [1]) was 5%. The “neuroprotection against paclitaxel-induced neurotoxicity” value (Primary DRG cells [2]) was “neuroprotection was provided”, the activity at 1 µM (Primary DRG cells [2]) was 45% and the “Neurite outgrowth (%) A-B (extent of protection)” value (Primary DRG cells [2]) was 5%.
